PubChem BioAssay (NCI)
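Step 1: Grow cells in 96-well plates. Step 2: Expose to compound for 48 hours at 5 concentrations. Step 3: Interpolate endpoints linearly; if unreached, use highest concentration. TGI is the concentration that stops growth completely.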

Legend:
Assay in all cases: growth of human tumour cells (NCI), 48 h
786-0 renal = system: 786-0 renal
A498 renal = system: A498 renal
A549 NSCLC = system: A549 NSCLC
ACHN renal = system: ACHN renal
BT-549 breast = system: BT-549 breast
CAKI-1 renal = system: CAKI-1 renal
CCRF-CEM leukemia = system: CCRF-CEM leukemia
COLO 205 colon = system: COLO 205 colon
DU-145 prostate = system: DU-145 prostate
EKVX NSCLC = system: EKVX NSCLC
HCC-2998 colon = system: HCC-2998 colon
HCT-116 colon = system: HCT-116 colon
HCT-15 colon = system: HCT-15 colon
HL-60(TB) leukemia = system: HL-60(TB) leukemia
HOP-62 NSCLC = system: HOP-62 NSCLC
HOP-92 NSCLC = system: HOP-92 NSCLC
HS 578T breast = system: HS 578T breast
HT29 colon = system: HT29 colon
K-562 leukemia = system: K-562 leukemia
KM12 colon = system: KM12 colon
LOX IMVI melanoma = system: LOX IMVI melanoma
M14 melanoma = system: M14 melanoma
MALME-3M melanoma = system: MALME-3M melanoma
MCF7 breast = system: MCF7 breast
MDA-MB-231 breast = system: MDA-MB-231 breast
MDA-MB-435 = system: MDA-MB-435
MDA-N = system: MDA-N
MOLT-4 leukemia = system: MOLT-4 leukemia
NCI-H226 lung = system: NCI-H226 lung
NCI-H23 lung = system: NCI-H23 lung
NCI-H460 lung = system: NCI-H460 lung
NCI-H522 lung = system: NCI-H522 lung
NCI/ADR-RES ovarian = system: NCI/ADR-RES ovarian
OVCAR-3 ovarian = system: OVCAR-3 ovarian
OVCAR-4 ovarian = system: OVCAR-4 ovarian
OVCAR-5 ovarian = system: OVCAR-5 ovarian
OVCAR-8 ovarian = system: OVCAR-8 ovarian
RPMI-8226 leukemia = system: RPMI-8226 leukemia
RXF 393 renal = system: RXF 393 renal
SF-268 CNS = system: SF-268 CNS
SF-295 CNS = system: SF-295 CNS
SF-539 CNS = system: SF-539 CNS
SK-MEL-2 melanoma = system: SK-MEL-2 melanoma
SK-MEL-28 melanoma = system: SK-MEL-28 melanoma
SK-MEL-5 melanoma = system: SK-MEL-5 melanoma
SK-OV-3 ovarian = system: SK-OV-3 ovarian
SN12C renal = system: SN12C renal
SNB-19 CNS = system: SNB-19 CNS
SR leukemia = system: SR leukemia
SW-620 colon = system: SW-620 colon
T-47D breast = system: T-47D breast
TK-10 renal = system: TK-10 renal
U251 CNS = system: U251 CNS
UACC-257 melanoma = system: UACC-257 melanoma
UACC-62 melanoma = system: UACC-62 melanoma
UO-31 renal = system: UO-31 renal
IGROV1 ovarian = system: IGROV1 ovarian
PC-3 prostate = system: PC-3 prostate
SNB-75 CNS = system: SNB-75 CNS

With `CC(=O)Nc1cccc(N2C(=O)/C(=C\c3cccc(Oc4ccccc4)c3)SC2c2ccccc2)c1` (stereo unspecified) the TGI (786-0 renal) was over 100 µM, the TGI (A498 renal) was over 100 µM and the TGI (A549 NSCLC) was over 100 µM. It also gave a TGI (ACHN renal) of over 100 µM, a TGI (BT-549 breast) of over 100 µM and a TGI (CAKI-1 renal) of over 100 µM. For the same compound, the TGI (CCRF-CEM leukemia) was 51.6 µM, the TGI (COLO 205 colon) was over 100 µM and the TGI (DU-145 prostate) was over 100 µM. For the same compound, the TGI (EKVX NSCLC) was over 100 µM, the TGI (HCC-2998 colon) was over 100 µM and the TGI (HCT-116 colon) was over 100 µM. The TGI (HCT-15 colon) was over 100 µM, the TGI (HL-60(TB) leukemia) was over 100 µM and the TGI (HOP-62 NSCLC) was over 100 µM. The TGI (HOP-92 NSCLC) was over 100 µM, the TGI (HS 578T breast) was over 100 µM and the TGI (HT29 colon) was over 100 µM. It also gave a TGI (K-562 leukemia) of over 100 µM, a TGI (KM12 colon) of over 100 µM and a TGI (LOX IMVI melanoma) of over 100 µM. It also gave a TGI (M14 melanoma) of over 100 µM, a TGI (MALME-3M melanoma) of over 100 µM and a TGI (MCF7 breast) of over 100 µM. It also gave a TGI (MDA-MB-231 breast) of over 100 µM, a TGI (MDA-MB-435) of over 100 µM and a TGI (MDA-N) of over 100 µM. It also gave a TGI (MOLT-4 leukemia) of over 100 µM, a TGI (NCI-H226 lung) of over 100 µM and a TGI (NCI-H23 lung) of over 100 µM. For the same compound, the TGI (NCI-H460 lung) was over 100 µM, the TGI (NCI-H522 lung) was over 100 µM and the TGI (NCI/ADR-RES ovarian) was over 100 µM. For the same compound, the TGI (OVCAR-3 ovarian) was over 100 µM, the TGI (OVCAR-4 ovarian) was over 100 µM and the TGI (OVCAR-5 ovarian) was over 100 µM. It also gave a TGI (OVCAR-8 ovarian) of over 100 µM, a TGI (RPMI-8226 leukemia) of 89 µM and a TGI (RXF 393 renal) of over 100 µM. For the same compound, the TGI (SF-268 CNS) was over 100 µM, the TGI (SF-295 CNS) was over 100 µM and the TGI (SF-539 CNS) was over 100 µM. For the same compound, the TGI (SK-MEL-2 melanoma) was over 100 µM, the TGI (SK-MEL-28 melanoma) was over 100 µM and the TGI (SK-MEL-5 melanoma) was over 100 µM. It also gave a TGI (SK-OV-3 ovarian) of over 100 µM, a TGI (SN12C renal) of over 100 µM and a TGI (SNB-19 CNS) of over 100 µM. For the same compound, the TGI (SR leukemia) was 47.1 µM, the TGI (SW-620 colon) was over 100 µM and the TGI (T-47D breast) was over 100 µM. The TGI (TK-10 renal) was over 100 µM, the TGI (U251 CNS) was over 100 µM and the TGI (UACC-257 melanoma) was over 100 µM. It also gave a TGI (UACC-62 melanoma) of over 100 µM and a TGI (UO-31 renal) of over 100 µM.
`C1CCCN(NC2=NCCO2)CC1` showed a TGI (786-0 renal) of over 100 µM, a TGI (A498 renal) of over 100 µM and a TGI (A549 NSCLC) of over 100 µM. For the same compound, the TGI (ACHN renal) was over 100 µM, the TGI (CAKI-1 renal) was over 100 µM and the TGI (CCRF-CEM leukemia) was over 100 µM. It also gave a TGI (COLO 205 colon) of over 100 µM, a TGI (EKVX NSCLC) of over 100 µM and a TGI (HCC-2998 colon) of over 100 µM. The TGI (HCT-116 colon) was over 100 µM, the TGI (HCT-15 colon) was over 100 µM and the TGI (HL-60(TB) leukemia) was over 100 µM. The TGI (HOP-62 NSCLC) was over 100 µM, the TGI (HS 578T breast) was over 100 µM and the TGI (HT29 colon) was over 100 µM. It also gave a TGI (IGROV1 ovarian) of over 100 µM, a TGI (K-562 leukemia) of over 100 µM and a TGI (KM12 colon) of over 100 µM. It also gave a TGI (LOX IMVI melanoma) of over 100 µM, a TGI (M14 melanoma) of over 100 µM and a TGI (MALME-3M melanoma) of over 100 µM. It also gave a TGI (MCF7 breast) of over 100 µM, a TGI (MDA-MB-231 breast) of over 100 µM and a TGI (MDA-MB-435) of over 100 µM. It also gave a TGI (MDA-N) of over 100 µM, a TGI (MOLT-4 leukemia) of over 100 µM and a TGI (NCI-H226 lung) of over 100 µM. For the same compound, the TGI (NCI-H23 lung) was over 100 µM, the TGI (NCI-H460 lung) was over 100 µM and the TGI (NCI-H522 lung) was over 100 µM. The TGI (NCI/ADR-RES ovarian) was over 100 µM, the TGI (OVCAR-3 ovarian) was over 100 µM and the TGI (OVCAR-4 ovarian) was over 100 µM. The TGI (OVCAR-5 ovarian) was over 100 µM, the TGI (OVCAR-8 ovarian) was over 100 µM and the TGI (PC-3 prostate) was over 100 µM. The TGI (RPMI-8226 leukemia) was over 100 µM, the TGI (RXF 393 renal) was over 100 µM and the TGI (SF-295 CNS) was over 100 µM. For the same compound, the TGI (SF-539 CNS) was over 100 µM, the TGI (SK-MEL-2 melanoma) was over 100 µM and the TGI (SK-MEL-5 melanoma) was over 100 µM. The TGI (SN12C renal) was over 100 µM, the TGI (SNB-19 CNS) was over 100 µM and the TGI (SNB-75 CNS) was over 100 µM. For the same compound, the TGI (SR leukemia) was over 100 µM, the TGI (SW-620 colon) was over 100 µM and the TGI (T-47D breast) was over 100 µM. For the same compound, the TGI (TK-10 renal) was over 100 µM, the TGI (U251 CNS) was over 100 µM and the TGI (UACC-257 melanoma) was over 100 µM. The TGI (UACC-62 melanoma) was over 100 µM and the TGI (UO-31 renal) was over 100 µM.
`CC(=O)[C@H]1[C@H](O)C[C@@]2(C)[C@@H]3CCc4cc(O)c(OC5OC(CO)C(O)C(O)C5O)cc4C3(C)C(=O)C[C@]12C` (stereo partly specified) showed a TGI (786-0 renal) of over 100 µM, a TGI (A498 renal) of over 100 µM and a TGI (A549 NSCLC) of over 100 µM. It also gave a TGI (ACHN renal) of over 100 µM, a TGI (BT-549 breast) of over 100 µM and a TGI (CAKI-1 renal) of over 100 µM. It also gave a TGI (CCRF-CEM leukemia) of over 100 µM, a TGI (COLO 205 colon) of over 100 µM and a TGI (DU-145 prostate) of over 100 µM. The TGI (EKVX NSCLC) was over 100 µM, the TGI (HCC-2998 colon) was over 100 µM and the TGI (HCT-116 colon) was over 100 µM. It also gave a TGI (HCT-15 colon) of over 100 µM, a TGI (HL-60(TB) leukemia) of over 100 µM and a TGI (HOP-62 NSCLC) of over 100 µM. For the same compound, the TGI (HOP-92 NSCLC) was over 100 µM, the TGI (HT29 colon) was over 100 µM and the TGI (IGROV1 ovarian) was over 100 µM. The TGI (K-562 leukemia) was over 100 µM, the TGI (KM12 colon) was over 100 µM and the TGI (LOX IMVI melanoma) was over 100 µM. For the same compound, the TGI (M14 melanoma) was over 100 µM, the TGI (MALME-3M melanoma) was over 100 µM and the TGI (MCF7 breast) was over 100 µM. For the same compound, the TGI (MDA-MB-231 breast) was over 100 µM, the TGI (MDA-MB-435) was over 100 µM and the TGI (MDA-N) was over 100 µM. It also gave a TGI (MOLT-4 leukemia) of over 100 µM, a TGI (NCI-H226 lung) of over 100 µM and a TGI (NCI-H23 lung) of over 100 µM. It also gave a TGI (NCI-H460 lung) of over 100 µM, a TGI (NCI-H522 lung) of over 100 µM and a TGI (NCI/ADR-RES ovarian) of over 100 µM. It also gave a TGI (OVCAR-3 ovarian) of over 100 µM, a TGI (OVCAR-4 ovarian) of over 100 µM and a TGI (OVCAR-5 ovarian) of over 100 µM. For the same compound, the TGI (OVCAR-8 ovarian) was over 100 µM, the TGI (PC-3 prostate) was over 100 µM and the TGI (RXF 393 renal) was over 100 µM. For the same compound, the TGI (SF-268 CNS) was over 100 µM, the TGI (SF-295 CNS) was over 100 µM and the TGI (SF-539 CNS) was over 100 µM. It also gave a TGI (SK-MEL-2 melanoma) of over 100 µM, a TGI (SK-MEL-28 melanoma) of over 100 µM and a TGI (SK-MEL-5 melanoma) of over 100 µM. For the same compound, the TGI (SK-OV-3 ovarian) was over 100 µM, the TGI (SN12C renal) was over 100 µM and the TGI (SNB-19 CNS) was over 100 µM. The TGI (SNB-75 CNS) was over 100 µM, the TGI (SR leukemia) was over 100 µM and the TGI (SW-620 colon) was over 100 µM. For the same compound, the TGI (T-47D breast) was over 100 µM, the TGI (TK-10 renal) was over 100 µM and the TGI (U251 CNS) was over 100 µM. The TGI (UACC-257 melanoma) was over 100 µM, the TGI (UACC-62 melanoma) was over 100 µM and the TGI (UO-31 renal) was over 100 µM.
